What was measured:
ECHOR [1] = assay: Example V (second) postemergence foliar-applied ternary mixtures, greenhouse, direct seeded rice weeds; format: in vivo, Echinochloa oryzoides (Ard.) Fritsch
Description: Seeds or nutlets of the desired test plant species were planted in a soil matrix prepared by mixing a sandy loam or loam soil (e.g., 32 percent silt, 23 percent clay, and 45 percent sand, with a pH of about 6.5 and an organic matter content of about 1.9 percent) and calcareous grit in an 80 to 20 ratio. The soil matrix was contained in plastic pots with a volume of 1 quart and a surface area of 83.6 square centimeters (cm^2). […] The plants were grown for 8-22 days in a greenhouse with an approximate 14 hr. photoperiod which was maintained at about 29° C. during the day and 26° C. during the night. Nutrients (Peters Excel® 15-5-15 5-Ca 2-Mg and iron chelate) were applied in the irrigation solution as needed and water was added on a regular basis. Supplemental lighting was provided with overhead metal halide 1000-Watt lamps as necessary. The plants were employed for testing when they reached the first through fourth true leaf stage.
(§1) Treatments consisted of the benzyl ester of 4-amino-3-chloro-5-fluoro-6-(4-chloro-2-fluoro-3-methoxy-phenyl)pyridine-2-carboxylic acid (Compound A), formulated as an SC (suspension concentrate), an ACCase inhibitor, and a third herbicidal component, each applied alone and in ternary combination. Forms of compound A were applied on an acid equivalent basis.
For treatments comprised of formulated compounds, measured amounts of compounds were placed individually in 25 mL glass vials and diluted in a volume of 1.25% (v/v) Agri-Dex® crop oil concentrate to obtain 12× stock solutions. […] Application solutions were prepared by adding an appropriate amount of each stock solution (e.g., 1 mL) and diluted to the appropriate final concentrations with the addition of 9 mL of an aqueous mixture of 1.25% (v/v) crop oil concentrate so that the final spray solutions contained 1.25% (v/v) crop oil concentrate.
As required, additional water and/or 97:3 v/v acetone/DMSO was added to individual application solutions so that the final acetone and DMSO concentrations of the application solutions being compared were 8.1% and 0.25%, respectively.
(§2) All stock solutions and applications solutions were visually inspected for compound compatibility prior to application. Spray solutions were applied to the plant material with an overhead Mandel track sprayer equipped with a 8002E nozzles calibrated to deliver 187 L/ha over an application area of 0.503 m^2 at a spray height of 18 inches (46 cm) above average plant canopy height. Control plants were sprayed in the same manner with the solvent blank.
(§3) The treated plants and control plants were placed in a greenhouse as described above and watered by sub-irrigation to prevent wash-off of the test compounds. After approximately 3 weeks, the condition of the test plants as compared with that of the untreated plants was determined visually and scored on a scale of 0 to 100 percent where 0 corresponds to no injury or growth inhibition and 100 corresponds to complete kill.
(§4) Colby's equation was used to determine the herbicidal effects expected from the mixtures (Colby, S. R. 1967. Calculation of the synergistic and antagonistic response of herbicide combinations. Weeds 15:20-22.).
(§5) The following equation was used to calculate the expected activity of mixtures containing three active ingredients, A, B, and C: Expected=A+B+C−((A×B+A×C+B×C)/100)+(A×B×C/10000)

ECHCG [2] = assay: Example VI in-water applied ternary mixtures, greenhouse, transplanted paddy rice weeds; format: in vivo, Echinochloa crus-galli (L.) Beauv.
How it was run: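 Compound A (SC, acid-equivalent basis) alone or with cyhalofop-R-butyl or metamifop plus a third herbicide, injected into paddy water of greenhouse-grown transplanted rice and weeds at 1st–4th leaf stage (~29/26 °C). Visual injury scored 0–100% after ~3 weeks vs untreated; expected mixture effects by Colby's equation.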

ECHOR [3] = assay: as above; format: in vivo, Echinochloa oryzoides (Ard.) Fritsch
Description: (§6) Weed seeds or nutlets of the desired test plant species were planted in puddled soil (mud) prepared by mixing a shredded, non-sterilized mineral soil (50.5 percent silt, 25.5 percent clay, and 24 percent sand, with a pH of about 7.6 and an organic matter content of about 2.9 percent) and water at a 1:1 volumetric ratio. The prepared mud was dispensed in 365 mL aliquots into 16-ounce (oz.) non-perforated plastic pots with a surface area of 86.59 square centimeters (cm^2) leaving a headspace of 3 centimeters (cm) in each pot. Mud was allowed to dry overnight prior to planting or transplanting. Rice seeds were planted in Sun Gro MetroMix® 306 planting mixture, which typically has a pH of 6.0 to 6.8 and an organic matter content of about 30 percent, in plastic plug trays. Seedlings at the second or third leaf stage of growth were transplanted into 860 mL of mud contained in 32-oz. non-perforated plastic pots with a surface area of 86.59 cm^2 4 days prior to herbicide application. The paddy was created by filling the headspace of the pots with 2.5 to 3 cm of water. When required to ensure good germination and healthy plants, a fungicide treatment and/or other chemical or physical treatment was applied. The plants were grown for 4-22 days in a greenhouse with an approximate 14 hr. photoperiod which was maintained at about 29° C. during the day and 26° C. during the night. Nutrients were added as Osmocote® (19:6:12, N:P:K+minor nutrients) at 2 g per 16-oz. pot and 4 g per 32-oz. pot. Water was added on a regular basis to maintain the paddy flood, and supplemental lighting was provided with overhead metal halide 1000-Watt lamps as necessary. The plants were employed for testing when they reached the first through fourth true leaf stage.
as §1, with “inhibitor herbicide,” for “inhibitor,”
(§7) The ACCase inhibitor component was applied on an active ingredient basis and included cyhalofop-R-butyl formulated as Clincher® G and metamifop formulated as Metamifop EC. Other herbicidal components were applied on an active ingredient or acid equivalent basis depending on the compound and included penoxsulam formulated as Grasp® SC, bentazon sodium formulated as Basagran®, triclopyr […] (TEA) salt formulated as Grandstand® R, benzobicyclon formulated as Benzobicyclon, benfuresate formulated as Full Slot® WG, pyraclonil formulated as Pyraclon® Flowable, mefenacet (technical grade material), and pretilachlor (technical grade material).
(§8) Treatment requirements for each compound or herbicidal component were calculated based upon the rates being tested, the concentration of active ingredient or acid equivalent in the formulation, an application volume of 1 mL per component per pot, and an application area of 86.59 cm^2 per pot.
(§9) For formulated compounds, a measured amount was placed in an individual 100 or 200 mL glass vial and was dissolved in a volume of 1.25% (v/v) Agri-Dex® crop oil concentrate to obtain application solutions.
(§10) For technical grade compounds, a weighed amount was placed in an individual 100 to 200 mL glass vial and was dissolved in a volume of acetone to obtain concentrated stock solutions.
(§11) Applications were made by injecting with a pipetter appropriate amounts of the application solutions, into the aqueous layer of the paddy. Control plants were treated in the same manner with the solvent blank. Applications were made so that all treated plant material received the same concentrations of acetone and crop oil concentrate.
(§12) The treated plants and control plants were placed in a greenhouse as described above and water was added as needed to maintain a paddy flood. […]

CYPRO = assay: as above; format: in vivo, Cyperus rotundus L.
Description: as §6
as §1, with “inhibitor herbicide,” for “inhibitor,”
as §7, §8, §9, §10, §11, §12

FIMMI = assay: as above; format: in vivo, Fimbristylis miliacea (L.) Vahl
Description: as §6
as §1, with “inhibitor herbicide,” for “inhibitor,”
as §7, §8, §9, §10, §11, §12

IPOHE = assay: Example V (second) postemergence foliar-applied ternary mixtures, greenhouse, direct seeded rice weeds; format: in vivo, Ipomoea hederacea Jacq.; conditions: Penoxsulam 8.75 gai/ha
Excerpt: as §2, §3, §4, §5

CYPIR = assay: as above; format: in vivo, Cyperus iria L.
Description: as §3, §4, §5

SCPMA = assay: Example VI in-water applied ternary mixtures, greenhouse, transplanted paddy rice weeds; format: in vivo, Schoenoplectus maritimus (L.) Lye; conditions: 5 gai/ha
Description: as §11
as §3, with “water was added as needed” for “watered by sub-irrigation”, “maintain a paddy flood.” for “prevent wash-off of the test compounds.”, “weeks” for “weeks,”
as §4
The following equation was used to calculate the expected activity of mixtures containing three active ingredients, A. B, and C: Expected=A+B+C−((A×B+A×C+B×C)/100)+(A×B×C/10000)

ECHCG [4] = assay: Example V (second) postemergence foliar-applied ternary mixtures, greenhouse, direct seeded rice weeds; format: in vivo, Echinochloa crus-galli (L.) Beauv.; conditions: 17.5 gae/ha
How it was run: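 Compound A (SC, acid equivalent), an ACCase inhibitor and a third herbicide were sprayed alone and as ternary mixtures postemergence at 187 L/ha with 1.25% v/v crop oil concentrate on greenhouse plants at the 1st–4th true leaf stage (29/26 °C day/night, ~14 h photoperiod). Injury was scored visually at ~3 weeks (0–100%) against untreated plants, and Colby's equation gave the expected mixture effects.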

SCPJU [5] = assay: as above; format: in vivo, Schoenoplectus juncoides (Roxb.) Palla; conditions: 17.5 gae/ha
Excerpt: Seeds or nutlets of the desired test plant species were planted in a soil matrix prepared by mixing a sandy loam or loam soil (e.g., 32 percent silt, 23 percent clay, and 45 percent sand, with a pH of about 6.5 and an organic matter content of about 1.9 percent) and calcareous grit in an 80 to 20 ratio. The soil matrix was contained in plastic pots with a volume of 1 quart and a surface area of 83.6 square centimeters (cm^2). When required to ensure good germination and healthy plants, a fungicide treatment and/or other chemical or physical treatment was applied. The plants were grown for 8-22 days in a greenhouse with an approximate 14 hr. photoperiod which was maintained at about 29° C. during the day and 26° C. during the night. Nutrients (Peters Excel® 15-5-15 5-Ca 2-Mg and iron chelate) were applied in the irrigation solution as needed and water was added on a regular basis. Supplemental lighting was provided with overhead metal halide 1000-Watt lamps as necessary. The plants were employed for testing when they reached the first through fourth true leaf stage.
as §1
The ACCase inhibitor component was applied on an active ingredient basis and included cyhalofop-R-butyl formulated as Clincher® SF, fenoxaprop-p-ethyl formulated as RiceStar® HT, and profoxydim formulated as Aura® 20EC. Other herbicidal components were applied on an active ingredient or acid equivalent basis depending on the compound and included penoxsulam formulated as Grasp® SC, bentazon sodium formulated as Basagran®, triclopyr […] (TEA) salt formulated as Grandstand® R, bispyribac sodium formulated as Regiment® 80WP, imazamox ammonium formulated as Beyond®, benzobicyclon, quinclorac formulated as Facet® 75DF, glyphosate dimethylammonium (DMA) salt formulated as Durango® DMA, glufosinate ammonium formulated as Ignite® 280, fentrazamide formulated as an emulsifiable concentrate (EC), propyrisulfuron formulated as Zeta One®, and indanofan (technical grade material).
Treatment requirements were calculated based upon the rates being tested, the concentration of active ingredient or acid equivalent in the formulation, and a 12 mL application volume at a rate of 187 L/ha.
For treatments comprised of formulated compounds, measured amounts of compounds were placed individually in 25 mL glass vials and diluted in a volume of 1.25% (v/v) Agri-Dex® crop oil concentrate to obtain 12× stock solutions. […]

ECHCO = assay: as above; format: in vivo, Echinochloa colona (L.) Link; conditions: 17.5 gae/ha
Description: as §3, §4, §5

SCPJU [6] = assay: Example VI in-water applied ternary mixtures, greenhouse, transplanted paddy rice weeds; format: in vivo, Schoenoplectus juncoides (Roxb.) Palla; conditions: 17.5 gai/ha
Description: as §6
as §1, with “inhibitor herbicide,” for “inhibitor,”
The ACCase inhibitor component was applied on an active ingredient basis and included cyhalofop-R-butyl formulated as Clincher® G and metamifop formulated as Metamifop EC. […]
as §8
For formulated compounds, a measured amount was placed in an individual 100 or 200 mL glass vial and was dissolved in a volume of 1.25% (v/v) Agri-Dex® crop oil concentrate to obtain application solutions. […]

## COc1cnc(OC)n2nc(NS(=O)(=O)c3c(OCC(F)F)cccc3C(F)(F)F)nc12 [Penoxsulam]
ECHOR [1]; 4.38 gai/ha
  Visual Weed Control (%) - 22 DAA ECHOR Obs: 45%
ECHOR [1]; 8.75 gai/ha
  Visual Weed Control (%) - 22 DAA ECHOR Obs: 53%
ECHCG [2]; 1.25 gai/ha, first sub-table
  Visual Weed Control (%) - 21 DAA ECHCG Obs: 17%
ECHCG [2]; 2.5 gai/ha, second sub-table
  Visual Weed Control (%) - 21 DAA ECHCG Obs: 55%
ECHOR [3]; Table 71, 5 gai/ha
  Visual Weed Control (%) - 24 DAA ECHOR Obs: 65%
ECHOR [3]; Table 71, 10 gai/ha
  Visual Weed Control (%) - 24 DAA ECHOR Obs: 93%
CYPRO; 1.25 gai/ha
  Visual Weed Control (%) - 21 DAA CYPRO Obs: 0%
CYPRO; 2.5 gai/ha
  Visual Weed Control (%) - 24 DAA CYPRO Obs: 0%
CYPRO; 5 gai/ha
  Visual Weed Control (%) - 24 DAA CYPRO Obs: 0%
FIMMI; 1.25 gai/ha
  Visual Weed Control (%) - 21 DAA FIMMI Obs: 33%
FIMMI; 2.5 gai/ha
  Visual Weed Control (%) - 24 DAA FIMMI Obs: 60%
IPOHE
  Visual Weed Control (%) - 21 DAA IPOHE Obs: 48%
CYPIR; 4.38 gai/ha
  Visual Weed Control (%) - 22 DAA CYPIR Obs: 50%
SCPMA
  Visual Weed Control (%) - 24 DAA SCPMA Obs: 30%

## CCN(CC)CC.O=C(O)COc1nc(Cl)c(Cl)cc1Cl [Triclopyr TEA Salt]
ECHCG [4]
  Visual Weed Control (%) - 21 DAA ECHCG Obs: 0%
SCPJU [5]
  Visual Weed Control (%) - 21 DAA SCPJU Obs: 43%
ECHCO
  Visual Weed Control (%) - 21 DAA ECHCO Obs: 3%
CYPIR; 17.5 gae/ha
  Visual Weed Control (%) - 21 DAA CYPIR Obs: 0%

## CCN(CC)CC.O=C(O)COc1nc(Cl)c(Cl)cc1Cl [Triclopyr TEA]
ECHCG [2]; 17.5 gai/ha, first set
  Visual Weed Control (%) - 21 DAA ECHCG Obs: 0%
ECHCG [2]; 35 gai/ha, second set
  Visual Weed Control (%) - 21 DAA ECHCG Obs: 0%
SCPJU [6]
  Visual Weed Control (%) - 21 DAA SCPJU Obs: 8%

From patent publication US9232796B2, “Herbicidal compositions comprising 4-amino-3-chloro-5-fluoro-6-(4-chloro-2-fluoro-3-methoxyphenyl) pyridine-2-carboxylic acid or a derivative thereof and acetyl-CoA carboxylase (ACCase) inhibitors” (DOW AGROSCIENCES LLC, priority 2012, dated 2016)
